From US6630499B1, “Control of arthropods in animals” (Aventis CropScience, S.A., priority 1998, dated 2003)

How the values were obtained:
Format in all cases: in vivo
[1] = system: cat fleas (Ctenocephalides felis); test: Control of cat fleas on treated dogs (Biological Examples 1-3); settings: 10 mg/kg; for % Control 1 DPT (Fleas/Ticks): Fleas: dogs, 30 mg/mL in 1:1 dimethyl sulfoxide/corn oil, 1 day post-treatment, versus placebo group
Experimental: (§1) All dogs were infested with cat fleas (Ctenocephalides felis) and with ticks (Rhipicephalus sanguineus) 1 day prior to administration of the compound. Cats were only infested with fleas. The initial flea and tick counts were performed 1 day after the administration of the compounds. At 7, 14, 21 and 28 days after treatment the dogs were re-infested with ticks and 8, 15, 22 and 29 days after treatment the dogs and cats were re-infested with fleas. At 1, 9, 16, 23 and 30 days after treatment the control of fleas and ticks in treated dogs and cats was determined versus a group of infested dogs and cats which received a placebo consisting of a 1:1 volume/volume solution of dimethyl sulfoxide and corn oil. To determine the efficacies of the compounds, the arthropods were combed from the animals and counted.
(§2) The compounds listed below were formulated and tested as described in Biological Example 1, again at the dosage level of active ingredient of 10 mg/kg in dogs and 20 mg/kg in cats. Results at 1 DPT (day post-treatment) are tabulated below, where the compound numbers are the same as those listed in Tables 1, 2, 4, 5, 6, 7, 8, 9, 10, 11, 12 and 13 hereinabove.
(§3) Testing was carried out as described in Biological Example 1. […] The Huang et al compound was deemed to have insufficient activity to be tested in cats.

[2] = system: ticks (Rhipicephalus sanguineus); test: Control of ticks on treated dogs (Biological Examples 1-3); settings: 10 mg/kg; for % Control 1 DPT (Fleas/Ticks): Ticks: dogs, 30 mg/mL in 1:1 dimethyl sulfoxide/corn oil, 1 day post-treatment, versus placebo group
Experimental: as §1, §2, §3

[3] = system: cat fleas (Ctenocephalides felis); test: Control of cat fleas on treated cats (Biological Examples 1-3); settings: 20 mg/kg; for % Control 1 DPT (Fleas): cats, 30 mg/mL in 1:1 dimethyl sulfoxide/corn oil, 1 day post-treatment, versus placebo group
Experimental: as §1, §2, §3

Emesis in treated dogs = settings: 10 mg/kg; for % Emesis: dogs; for emesis: group of 3 dogs
Experimental: (§4) By the term “emesis” is meant vomiting. Generally an emetic substance elicits emesis in less than 24 hours after administration, usually less than 8 hours, more usually less than 2 hours. By the term “substantially non-emetic” is meant that, generally, when a compound or composition of the invention is administered to a population of animals, more than 70% (or at least ⅔) of the animals are free of emesis. Preferably, more than 80%, most preferably more than 90%, of said population is free of emesis.
(§5) In the animals treated with the compounds above, there was substantially no emesis after 2, 8 and 24 hours. Generally long-term control of fleas and ticks was provided in dogs. In the cats treated, there was commercially acceptable control of fleas for at least one day post treatment.
as §2

Emesis in treated cats = settings: 20 mg/kg; for % Emesis: cats
Experimental: as §4, §5, §2

## CN(C(=O)C1CCCO1)c1c([S+]([O-])C(F)(F)F)c(C#N)nn1-c1c(Cl)cc(C(F)(F)F)cc1Cl (mixture of isomers) [Compound 1-9]
[1]
  % Control 1 DPT (Fleas/Ticks): Fleas: 100/100%
[2]
  % Control 1 DPT (Fleas/Ticks): Ticks: 100/100%
[3]
  % Control 1 DPT (Fleas): 100%
Emesis in treated dogs
  % Emesis: 0%
Emesis in treated cats
  % Emesis: 0%

## CCOC(C)C(=O)N(C)c1c([S+]([O-])C(F)(F)F)c(C#N)nn1-c1c(Cl)cc(C(F)(F)F)cc1Cl (mixture of isomers) [Compound 122-1]
[1]
  % Control 1 DPT (Fleas/Ticks): Fleas: 100%
[2]
  % Control 1 DPT (Fleas/Ticks): Ticks: 95%
Emesis in treated dogs
  % Emesis: 0%

## CN(C(=O)C1CCCO1)c1c(SC(F)(F)F)c(C#N)nn1-c1c(Cl)cc(C(F)(F)F)cc1Cl (racemic) [Compound 1-7]
[1]
  % Control 1 DPT (Fleas/Ticks): Fleas: 100%
[2]
  % Control 1 DPT (Fleas/Ticks): Ticks: 97%
[3]
  % Control 1 DPT (Fleas): 100%
Emesis in treated dogs
  % Emesis: 0%
Emesis in treated cats
  % Emesis: 25%

## CN(C(=O)C1CCCO1)c1c(S(=O)(=O)C(F)(F)F)c(C#N)nn1-c1c(Cl)cc(C(F)(F)F)cc1Cl (racemic) [Compound 1-11]
[1]
  % Control 1 DPT (Fleas/Ticks): Fleas: 100/100%
[2]
  % Control 1 DPT (Fleas/Ticks): Ticks: 100/100%
[3]
  % Control 1 DPT (Fleas): 98%
Emesis in treated dogs
  % Emesis: 0%
Emesis in treated cats
  % Emesis: 0%

## CCOCC(=O)N(C)c1c([S+]([O-])C(F)(F)F)c(C#N)nn1-c1c(Cl)cc(C(F)(F)F)cc1Cl (racemic) [Compound 3-3]
[1]
  % Control 1 DPT (Fleas/Ticks): Fleas: 100%
[2]
  % Control 1 DPT (Fleas/Ticks): Ticks: 98%
[3]
  % Control 1 DPT (Fleas): 100%
Emesis in treated dogs
  % Emesis: 0%
Emesis in treated cats
  % Emesis: 0%

## N#Cc1nn(-c2c(Cl)cc(C(F)(F)F)cc2Cl)c(N(C(=O)C2CCCO2)C2CC2)c1S(=O)(=O)C(F)(F)F (racemic) [Compound 6-11]
[1]
  % Control 1 DPT (Fleas/Ticks): Fleas: 100%
[2]
  % Control 1 DPT (Fleas/Ticks): Ticks: 98%
[3]
  % Control 1 DPT (Fleas): 98%
Emesis in treated dogs
  % Emesis: 0%
Emesis in treated cats
  % Emesis: 0%

## N#Cc1nn(-c2c(Cl)cc(C(F)(F)F)cc2Cl)c(N(CC2CC2)C(=O)C2CCCO2)c1S(=O)(=O)C(F)(F)F (racemic) [Compound 7-11]
[1]
  % Control 1 DPT (Fleas/Ticks): Fleas: 100/100%
[2]
  % Control 1 DPT (Fleas/Ticks): Ticks: 100/100%
[3]
  % Control 1 DPT (Fleas): 100%
Emesis in treated dogs
  % Emesis: 0%
Emesis in treated cats
  % Emesis: 0%

## CCOC(C)C(=O)N(C)c1c(SC(F)(F)F)c(C#N)nn1-c1c(Cl)cc(C(F)(F)F)cc1Cl (racemic) [Compound 116-1]
[1]
  % Control 1 DPT (Fleas/Ticks): Fleas: 79%
[2]
  % Control 1 DPT (Fleas/Ticks): Ticks: 100%
[3]
  % Control 1 DPT (Fleas): 100%
Emesis in treated dogs
  % Emesis: 0%
Emesis in treated cats
  % Emesis: 0%

## CN(C(=O)C1CCCCO1)c1c(SC(F)(F)F)c(C#N)nn1-c1c(Cl)cc(C(F)(F)F)cc1Cl (racemic) [Compound 121-1]
[3]
  % Control 1 DPT (Fleas): 100%
Emesis in treated cats
  % Emesis: 0%

## CN(C(=O)C1CCCO1)c1c(SC(F)(F)F)c(C#N)nn1-c1c(Cl)cc(C(F)(F)F)cc1Cl [(R)1-7]
[3]
  % Control 1 DPT (Fleas): 100%
Emesis in treated cats
  % Emesis: 0%

## CN(C(=O)C1CCCO1)c1c(SC(F)(F)F)c(C#N)nn1-c1c(Cl)cc(C(F)(F)F)cc1Cl [(S)1-7]
[3]
  % Control 1 DPT (Fleas): 99%
Emesis in treated cats
  % Emesis: 0%

## CC(=O)N(C)c1c(SC(F)(F)F)c(C#N)nn1-c1c(Cl)cc(C(F)(F)F)cc1Cl [Compound 1-1]
[1]
  % Control 1 DPT (Fleas/Ticks): Fleas: 91%
[2]
  % Control 1 DPT (Fleas/Ticks): Ticks: 82%
[3]
  % Control 1 DPT (Fleas): 99%
Emesis in treated dogs
  % Emesis: 0%
Emesis in treated cats
  % Emesis: 0%

## CC(=O)N(C)c1c(S(=O)(=O)C(F)(F)F)c(C#N)nn1-c1c(Cl)cc(C(F)(F)F)cc1Cl [Compound 1-5]
[1]
  % Control 1 DPT (Fleas/Ticks): Fleas: 98%
[2]
  % Control 1 DPT (Fleas/Ticks): Ticks: 84%
[3]
  % Control 1 DPT (Fleas): 0%
Emesis in treated dogs
  % Emesis: 0%
Emesis in treated cats
  % Emesis: 33%

## COCC(=O)N(C)c1c(SC(F)(F)F)c(C#N)nn1-c1c(Cl)cc(C(F)(F)F)cc1Cl [Compound 2-1, 1-(2,6-dichloro-4-trifluoromethylphenyl)-3-cyano-4-trifluoromethylthio-5-(N-methyl)methoxyacetamidopyrazole]
[1]
  % Control 1 DPT (Fleas/Ticks): Fleas: 100/100%
[1]; group of 3 dogs, 30 DPT
  control of fleas at 30 DPT: 93%
[2]
  % Control 1 DPT (Fleas/Ticks): Ticks: 100/100%
[2]; group of 3 dogs, 30 DPT
  control of ticks at 30 DPT: 100%
[3]
  % Control 1 DPT (Fleas): 100%
[3]; group of 4 cats, at least one month
  control of fleas for at least a one month period: 100%
Emesis in treated dogs
  % Emesis: 0%
  emesis: no emesis (0/3)
Emesis in treated cats
  % Emesis: 0%
Emesis in treated cats; group of 4 cats
  vomiting: no vomiting

## COCC(=O)N(C)c1c([S+]([O-])C(F)(F)F)c(C#N)nn1-c1c(Cl)cc(C(F)(F)F)cc1Cl (stereo not drawn) [Compound 2-3]
[1]
  % Control 1 DPT (Fleas/Ticks): Fleas: 100%
[2]
  % Control 1 DPT (Fleas/Ticks): Ticks: 99%
[3]
  % Control 1 DPT (Fleas): 100%
Emesis in treated dogs
  % Emesis: 33%
Emesis in treated cats
  % Emesis: 0%

## COCC(=O)N(C)c1c(S(=O)(=O)C(F)(F)F)c(C#N)nn1-c1c(Cl)cc(C(F)(F)F)cc1Cl [Compound 2-5]
[1]
  % Control 1 DPT (Fleas/Ticks): Fleas: 100%
[2]
  % Control 1 DPT (Fleas/Ticks): Ticks: 95%
[3]
  % Control 1 DPT (Fleas): 100%
Emesis in treated dogs
  % Emesis: 33%
Emesis in treated cats
  % Emesis: 0%

## CCOCC(=O)N(C)c1c(SC(F)(F)F)c(C#N)nn1-c1c(Cl)cc(C(F)(F)F)cc1Cl [Compound 3-1]
[1]
  % Control 1 DPT (Fleas/Ticks): Fleas: 100%
[2]
  % Control 1 DPT (Fleas/Ticks): Ticks: 96%
[3]
  % Control 1 DPT (Fleas): 100%
Emesis in treated dogs
  % Emesis: 0%
Emesis in treated cats
  % Emesis: 0%

## CCOCC(=O)N(C)c1c(S(=O)(=O)C(F)(F)F)c(C#N)nn1-c1c(Cl)cc(C(F)(F)F)cc1Cl [Compound 3-5]
[1]
  % Control 1 DPT (Fleas/Ticks): Fleas: 100/100%
[2]
  % Control 1 DPT (Fleas/Ticks): Ticks: 100/100%
[3]
  % Control 1 DPT (Fleas): 100%
Emesis in treated dogs
  % Emesis: 33%
Emesis in treated cats
  % Emesis: 0%

## CC(C)N(C(=O)C1CCCO1)c1c(SC(F)(F)F)c(C#N)nn1-c1c(Cl)cc(C(F)(F)F)cc1Cl (stereo not drawn) [Compound 3-7]
[1]
  % Control 1 DPT (Fleas/Ticks): Fleas: 100/100%
[2]
  % Control 1 DPT (Fleas/Ticks): Ticks: 100/100%
[3]
  % Control 1 DPT (Fleas): 100%
Emesis in treated dogs
  % Emesis: 0%
Emesis in treated cats
  % Emesis: 0%

## N#Cc1nn(-c2c(Cl)cc(C(F)(F)F)cc2Cl)c(N(CC2CC2)C(=O)C2CCCO2)c1SC(F)(F)F (stereo not drawn) [Compound 7-7]
[1]
  % Control 1 DPT (Fleas/Ticks): Fleas: 29%
[2]
  % Control 1 DPT (Fleas/Ticks): Ticks: 66%
Emesis in treated dogs
  % Emesis: 0%

## CCOCC(=O)N(CC1CC1)c1c(S(=O)(=O)C(F)(F)F)c(C#N)nn1-c1c(Cl)cc(C(F)(F)F)cc1Cl [Compound 28-5]
[1]
  % Control 1 DPT (Fleas/Ticks): Fleas: 100%
[2]
  % Control 1 DPT (Fleas/Ticks): Ticks: 74%
Emesis in treated dogs
  % Emesis: 0%

## COCCC(=O)N(C)c1c(SC(F)(F)F)c(C#N)nn1-c1c(Cl)cc(C(F)(F)F)cc1Cl [Compound 37-1]
[3]
  % Control 1 DPT (Fleas): 76%
Emesis in treated cats
  % Emesis: 0%

## CCOCCC(=O)N(C)c1c(SC(F)(F)F)c(C#N)nn1-c1c(Cl)cc(C(F)(F)F)cc1Cl [Compound 38-1]
[3]
  % Control 1 DPT (Fleas): 87%
Emesis in treated cats
  % Emesis: 0%

## CCCOC(=O)N(CCC)c1c(SC(F)(F)F)c(C#N)nn1-c1c(Cl)cc(C(F)(F)F)cc1Cl [Compound 78-1]
[1]
  % Control 1 DPT (Fleas/Ticks): Fleas: 96%
[2]
  % Control 1 DPT (Fleas/Ticks): Ticks: 94%
Emesis in treated dogs
  % Emesis: 0%

## CN(C(=O)C1CC1)c1c(SC(F)(F)F)c(C#N)nn1-c1c(Cl)cc(C(F)(F)F)cc1Cl [Compound 117-1]
[3]
  % Control 1 DPT (Fleas): 45%
Emesis in treated cats
  % Emesis: 0%

## CCOC(C)(C)C(=O)N(C)c1c(SC(F)(F)F)c(C#N)nn1-c1c(Cl)cc(C(F)(F)F)cc1Cl [Compound 119-1]
[3]
  % Control 1 DPT (Fleas): 99%
Emesis in treated cats
  % Emesis: 0%

## CCCC(=O)N(C)c1c(SC(F)(F)F)c(C#N)nn1-c1c(Cl)cc(C(F)(F)F)cc1Cl [Compound 124-1]
[3]
  % Control 1 DPT (Fleas): 92%
Emesis in treated cats
  % Emesis: 0%

## N#Cc1nn(-c2c(Cl)cc(C(F)(F)F)cc2Cl)c(N=CNCC(F)(F)F)c1SC(F)(F)F [Compound 211-1]
[1]
  % Control 1 DPT (Fleas/Ticks): Fleas: 99%
[2]
  % Control 1 DPT (Fleas/Ticks): Ticks: 51%
Emesis in treated dogs
  % Emesis: 0%

## N#Cc1nn(-c2c(Cl)cc(C(F)(F)F)cc2Cl)c(N=CNCc2ccccc2)c1SC(F)(F)F [Compound 224]
[1]
  % Control 1 DPT (Fleas/Ticks): Fleas: 38%
[2]
  % Control 1 DPT (Fleas/Ticks): Ticks: 6%
Emesis in treated dogs
  % Emesis: 0%

## COCC(=O)Nc1c(SC(F)(F)F)c(C#N)nn1-c1c(Cl)cc(C(F)(F)F)cc1Cl [Huang et al compound, 1-(2,6-dichloro-4-trifluoromethylphenyl)-3-cyano-4-trifluoromethylthio-5-(methoxyacetamido)pyrazole, reference compound]
[1]; group of 3 dogs, 9 DPT
  control of fleas after 9 DPT: < 50%
[2]; group of 3 dogs, 9 DPT
  control of ticks after 9 DPT: < 50%
Emesis in treated dogs
  emesis: no emesis (0/3)
